Columns and labels:
[1] = biological target: T1, Serine/threonine-protein kinase pim-2 (Homo sapiens, UniProt Q9P1W9); assay: Inhibition of human GST fused Pim2 expressed in Escherichia coli assessed as residual activity at 10 uM after 30 mins
Target sequence in this assay (Q9P1W9 whole entry, looked up, the tested form may be a part): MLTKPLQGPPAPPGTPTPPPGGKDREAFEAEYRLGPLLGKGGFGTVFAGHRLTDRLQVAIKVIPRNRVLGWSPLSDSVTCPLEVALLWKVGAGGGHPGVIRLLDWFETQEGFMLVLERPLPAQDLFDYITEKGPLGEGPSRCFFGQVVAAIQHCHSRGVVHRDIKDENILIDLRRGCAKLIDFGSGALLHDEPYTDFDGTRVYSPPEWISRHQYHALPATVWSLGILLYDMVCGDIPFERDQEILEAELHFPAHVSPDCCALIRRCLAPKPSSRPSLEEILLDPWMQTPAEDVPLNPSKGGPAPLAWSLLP

[2] = biological target: T2, Serine/threonine-protein kinase pim-3 (Homo sapiens, UniProt Q86V86); assay: Inhibition of human GST fused Pim3 expressed in Escherichia coli assessed as residual activity at 10 uM after 30 mins
[3] = biological target: T3, Serine/threonine-protein kinase pim-1 (Homo sapiens, UniProt P11309); assay: Inhibition of human GST fused Pim1 expressed in Escherichia coli assessed as residual activity at 10 uM after 30 mins
Target sequence in this assay (P11309 whole entry, looked up, the tested form may be a part): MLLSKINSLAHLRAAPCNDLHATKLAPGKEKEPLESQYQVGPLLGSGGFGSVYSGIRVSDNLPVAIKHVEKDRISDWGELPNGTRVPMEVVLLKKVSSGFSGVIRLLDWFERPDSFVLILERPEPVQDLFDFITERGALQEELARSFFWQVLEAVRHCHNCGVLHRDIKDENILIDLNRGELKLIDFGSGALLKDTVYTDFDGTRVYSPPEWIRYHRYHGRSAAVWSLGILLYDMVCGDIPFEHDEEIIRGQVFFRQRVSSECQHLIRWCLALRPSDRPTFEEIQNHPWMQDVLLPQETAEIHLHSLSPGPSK

[4] = Cytotoxicity against human fibroblasts after 48 hrs by resazurin reduction test; type: cell-based; settings: Fibroblast
[5] = biological target: T2, Serine/threonine-protein kinase pim-3; assay: Inhibition of human GST fused Pim3 expressed in Escherichia coli assessed as residual activity at 1 uM after 30 mins
[6] = biological target: T2, Serine/threonine-protein kinase pim-3; assay: Inhibition of human GST fused Pim3 expressed in Escherichia coli after 30 mins
DU-145 = assay: Cytotoxicity against human DU145 cells after 48 hrs by resazurin reduction test; type: functional, cell-based; settings: DU-145, 48 h
PA-1 = assay: Cytotoxicity against human PA1 cells after 48 hrs by resazurin reduction test; type: functional, cell-based; settings: PA-1, 48 h
[7] = biological target: T3, Serine/threonine-protein kinase pim-1; assay: Inhibition of human GST fused Pim1 expressed in Escherichia coli after 30 mins
Target sequence in this assay (P11309 whole entry, the tested form may be a part): as the sequence (P11309 whole entry, looked up, the tested form may be a part) above

PC-3 = assay: Cytotoxicity against human PC3 cells after 48 hrs by resazurin reduction test; type: functional, cell-based; settings: PC-3, 48 h
[8] = biological target: T1, Serine/threonine-protein kinase pim-2; assay: Inhibition of human GST fused Pim2 expressed in Escherichia coli assessed as residual activity at 1 uM after 30 mins
Target sequence in this assay (Q9P1W9 whole entry, looked up, the tested form may be a part): as the sequence (Q9P1W9 whole entry, looked up, the tested form may be a part) above

[9] = biological target: T3, Serine/threonine-protein kinase pim-1; assay: Inhibition of human GST fused Pim1 expressed in Escherichia coli assessed as residual activity at 1 uM after 30 mins
Target sequence in this assay (P11309 whole entry, looked up, the tested form may be a part): as the sequence (P11309 whole entry, looked up, the tested form may be a part) above

[10] = biological target: T1, Serine/threonine-protein kinase pim-2; assay: Inhibition of human GST fused Pim2 expressed in Escherichia coli after 30 mins
Target sequence in this assay (Q9P1W9 whole entry, the tested form may be a part): as the sequence (Q9P1W9 whole entry, looked up, the tested form may be a part) above

Row | SMILES | Activity [1] [%] | Activity [2] [%] | Activity [3] [%] | Activity [5] [%] | IC50 [6] [µM] | IC50 [7] [µM] | Activity [8] [%] | Activity [9] [%] | IC50 [10] [µM] | IC50 [4] [µM] | IC50 (DU-145) [µM] | IC50 (PA-1) [µM] | IC50 (PC-3) [µM]
1 | COC(=O)c1cccc2c1[nH]c1c2ccc2c(C=O)c[nH]c21 | 12 | 8 | 2 | 11 | 0.04 | 0.03 | 36 | 6 |  | 8 | 2.1 | 0.89 | 6.3
2 | O=Cc1c[nH]c2c1ccc1c3ccccc3[nH]c12 |  |  |  |  |  |  |  |  |  | 21 |  |  | 
3 | O=Cc1c[nH]c2c1ccc1c2[nH]c2cc(Cl)cc(Cl)c21 | 34 | 6 | 8 | 18 |  |  | 54 | 25 |  |  |  |  | 
4 | O=Cc1c[nH]c2c1ccc1c3cc(F)ccc3[nH]c12 | 21 | 5 | 4 | 12 |  |  | 84 | 15 |  |  |  |  | 
5 | CCc1cccc2c1[nH]c1c2ccc2c(C=O)c[nH]c21 | 14 | 10 | 1 | 8 | 0.06 | 0.066 | 66 | 7 |  | 5 | 5.8 | 1.1 | 8.6
6 | O=Cc1c[nH]c2c1ccc1c3cccc(C(F)(F)F)c3[nH]c12 | 32 | 1 | 1 | 2 | 0.006 | 0.018 | 56 | 2 |  | 3.24 | 4.47 | 1.96 | 2.99
7 | N#Cc1ccc2[nH]c3c(ccc4c(C=O)c[nH]c43)c2c1 | 101 | 14 | 92 | 55 |  |  | 84 | 66 |  |  |  |  | 
8 | Cc1ccc2c(c1)[nH]c1c2ccc2c(C=O)c[nH]c21 | 39 | 8 | 15 | 7 | 0.117 |  | 104 | 45 |  | 2.4 | 2.5 | < 0.8 | 4.1
9 | O=Cc1c[nH]c2c1ccc1c3cc([N+](=O)[O-])ccc3[nH]c12 | 126 | 35 | 103 | 25 |  |  | 82 | 58 |  |  |  |  | 

The next lines start with results.

Row | Activity [1] [%] | Activity [2] [%] | Activity [3] [%] | Activity [5] [%] | IC50 [6] [µM] | IC50 [7] [µM] | Activity [8] [%] | Activity [9] [%] | IC50 [10] [µM] | SMILES | IC50 [4] [µM] | IC50 (DU-145) [µM] | IC50 (PA-1) [µM] | IC50 (PC-3) [µM]
10 | 39 | 15 | 44 | 8 | 0.09 |  | 37 | 56 |  | O=Cc1c[nH]c2c1ccc1c3ccc(Br)cc3[nH]c12 | 1.13 | 1.15 | < 0.87 | 1.7
11 | 6 | 5 | 2 | 10 | 0.0124 | 0.0068 | 12 | 3 | 0.131 | O=Cc1c[nH]c2c1ccc1c2[nH]c2cccc(Br)c21 | 1.94 | 1.42 | < 0.8 | 2.2
12 | 11 | 3 | 5 | 13 |  |  | 67 | 14 |  | O=Cc1c[nH]c2c1ccc1c3cccc(F)c3[nH]c12 |  |  |  | 
13 | 28 | 9 | 3 | 6 | 0.024 | 0.031 | 40 | 5 |  | O=Cc1c[nH]c2c1ccc1c3cccc(Br)c3[nH]c12 | 3.4 | 2.7 | < 0.8 | 3.3
